Common to all, as to format: physicochemical
The nature of data set [1]: Freezing or pour point measurement. To be noted: 1 ml sample cooled with liquid nitrogen; for pour point: transparent glassy solid. The procedure: Freezing or pour points were measured for 3 related hydrofluoroether samples:
The freeze and or pour points were measured by cooling a 1 ml sample contained in a double walled glass tube. The outer tube was sealed at both ends and had side ports for the addition of nitrogen gas. The inner tube was sealed at one end. The annular space between the tubes was purged with dry nitrogen and sealed. The sample was introduced into the inner tube and sealed with a septum. The temperature of the sample contained in the inner tube was monitored with an Omega Model DP-41 (available from Omega Engineering, Inc., Stamford, Conn.) resistance thermal device inserted into the fluid. The apparatus was lowered into the dewar flask of liquid nitrogen.
If the material froze to a white solid, a freezing point is reported. If instead the material became a transparent glassy solid, a pour point is reported.
The resistance thermal device was not calibrated at temperatures less than −100° C.

Data set [2] can be described thus: Physical properties of the fluids (boiling point, gel temperature, pour point). To be noted: for boiling point: ambient / atmospheric pressure. The text has this:
The pumping power calculation was made for various fluorinated fluids and is presented in TABLE 5, along with various physical properties of the fluids.

The nature of data set [3]: Kinematic viscosity, Cannon-Fenske viscometer. The procedure: The kinematic viscosity of n-C3F7CF(OC2H5)CF(CF3)2 was measured using a Cannon-Fenske viscometer over the temperature range −80° C. to 23° C. Data were regressed using methods outlined in ASTM Standard D 341-77.
Data set [4] in a line: Specific heat by differential scanning calorimetry (ASTM E 1269-90). As to the method:
The specific heat of n-C3F7CF(OC2H5)CF(CF3)2 was measured by differential scanning calorimetry according to ASTME 1269-90 over a temperature range of −50° C. to 50° C.

The nature of data set [5]: Distillation curve, head temperature vs. percent boiled. To be noted: until over 95% of the fluid had boiled over. As to the method:
H-GALDEN™ ZT-130 fluid (199 grams) was distilled from a 250 mL boiling flask using a 12 inch (30 cm) downward slanting shell-in-tube condenser into another 250 mL receiver flask. The weight of the fluid captured by the receiver was continuously monitored using an Ohaus Model TP4000D digital balance (available from Ohaus Corp., Florham Park, N.J.). The head temperature of the distillation apparatus was monitored using a type-J thermocouple. Both weight and temperature measurements were recorded using a LABVIEW SCXI automated data acquisition system (available from National Instruments Corp., Austin, Tex.) at regular intervals during the course of the distillation, which took 20.9 minutes.
The same experiment was repeated except that 211.9 g of n-C3F7CF(OC2H5)CF(CF3)2 was used in place of the H-GALDEN™ ZT-130 fluid and the distillation took place over an 11.5 minute time interval.
Thus, better temperature and viscosity control is possible when the n-C3F7CF(OC2H5)CF(CF3)2 is employed as a wide temperature range heat-transfer fluid.

Data set [6] in a line: Liquid density, Anton-Parr densitometer. As to the method:
The liquid density of n-C3F7CF(OC2H5)CF(CF3)2 was measured from 10° C. to 90° C. using an Anton-Parr Model DMA58 densitometer with a DMA602 external cell. Densities below this temperature were obtained by linear extrapolation of the available data.

Data set [7] in a line: Thermal conductivity, transient hot-wire cell (ASTM D 2717-86). To be noted: value used in place of n-C3F7CF(OC2H5)CF(CF3)2. The procedure:
The thermal conductivity of n-C3F7CF(OC2H5)CF(CF3)2 was not measured. Instead, experimentally-determined values for the hydrofluoroether C4F9OC2H5 were used. These values were determined using a transient, hot-wire thermal conductivity cell over the temperature range of −50° C. to +50° C., according to ASTM D 2717-86. A platinum wire was used in the measurements. […] The thermal conductivity at 25° C. was 0.066 W/m° C.

These results are taken from patent US6374907B1, “Hydrofluoroether as a heat-transfer fluid” (3M Innovative Properties Company, priority 1999, dated 2002).

As to `CCOC(F)(C(F)(F)C(F)(F)F)C(F)(C(F)(F)F)C(F)(F)F` (stereo not drawn) [n-C2F5CF(OC2H5)CF(CF3)2], the freeze point in data set [1] (froze to a white solid) was −70 °C.

Turning to `CCOC(F)(C(F)(F)C(F)(F)C(F)(F)F)C(F)(C(F)(F)F)C(F)(F)F` (stereo not drawn) [n-C3F7CF(OC2H5)CF(CF3)2, 3-ethoxy-perfluoro(2-methylhexane)], in data set [2], the Gel temp is −100 °C, the “Initial Boiling point” value worked out at 128 °C and the boiling point is 128 °C. The “Kinematic Viscosity at 25° C.” value in data set [3] came out at 0.77 centistokes. The “Specific Heat at 25° C.” value in data set [4] is recorded as 1128 J/kg° C. In data set [5], the “change of boiling point during distillation” value is reported as “remained unchanged”. Moreover, the “Liquid Density at 25° C.” value in data set [6] is 1614 kg/m^3. Moreover, the pour point entry in data set [1] was “less than −100 °C”.

For C4F9OC2H5, the “thermal conductivity at 25° C.” value in data set [7] is given as 0.066 W/m° C.

As to `CCOC(F)(C(F)(F)C(F)(F)C(F)(F)C(F)(F)F)C(F)(C(F)(F)F)C(F)(F)F` (stereo not drawn) [n-C4F9CF(OC2H5)CF(CF3)2], the pour point in data set [1] was −83 °C.

`FC(F)(F)C(F)(F)C(F)(F)N(C(F)(F)C(F)(F)C(F)(F)F)C(F)(F)C(F)(F)C(F)(F)F` [FC-3283, perfluoro(tripropylamine)]: in data set [2], the Gel temp is −50 °C, the “Initial Boiling point” value stood at 130 °C, the pour point was −50 °C and the boiling point entry is “about 130 °C”.
